For data set [1], the system named is Bemisia argentifolii. Briefly: Insecticidal Test on Bemisia argentifolii. The data set is classed as in vivo. As to conditions: 120 h, 500 ppm solution sprayed on kidney bean leaves, adults, 25° C., 5 days after, read-out: mortality. As for the experimental part:
In styrol cups having an inner diameter of 7 cm, wet filter paper was laid, and kidney bean leaves cut to 3 cm were laid on the paper. 10% emulsifiable concentrates (or 10% wettable powders) of compounds of the present invention were diluted with water containing a spreader to obtain 500 ppm solutions. 2.5 ml of the solutions were sprayed from a rotary spray tower into the styrol cups (2.5 mg/cm^2). The leaves were dried in air, and adults of Bemisia argentifolii were released in the cups. The cups were closed and placed in an incubator at 25° C. 5 Days after, dead insects were counted, and the mortality was calculated by using the same equation as in Test Example 1. The test was carried out in duplicate.

Data set [2] deals with Nilaparvata lugens. Briefly: Insecticidal Test on Nilaparvata lugens. The data set is classed as in vivo. The following applies: 144 h, 500 ppm solution, rice sheaths soaked, 2nd-instar nymphs, 25° C., 6 days after, read-out: mortality (%). As for the experimental part: 10% emulsifiable concentrates (or 10% wettable powders) of compounds of the present invention were diluted with water containing a spreader to obtain 500 ppm solutions. Rice sheaths were soaked in the solutions for about 10 seconds, dried in air and put in test tubes. In each tube, five 2nd-instar nymphs of Nilaparvata lugens were released, and the tubes were capped with sponge and placed in an incubator at 25° C. 6 Days after, dead insects were counted, and the mortality (%) (the number of dead insects÷the number of released insects×100) was calculated. The test was carried out in duplicate.

The subject of data set [3] is Aphis gossypii. Briefly: Insecticidal Test on Aphis gossypii. The following applies: foliar, 144 h, 500 ppm solution sprayed, apterous adults on cucumber leaf discs, 25° C., 6 days after, read-out: mortality. The data set is classed as in vivo. As for the experimental part: (§1) Wet absorbent cotton was laid on glass dishes having an inner diameter of 3 cm, and covered with leaves of cucumber cut into circles of the same diameter, and 4 apterous adults of Aphis gossypii were released. After a day, 10% emulsifiable concentrates (or 10% wettable powders) of compounds of the present invention were diluted with water containing a spreader to obtain 500 ppm solutions, and the solution were sprayed from a rotary spray tower (2.5 mg/cm^2). The dishes were covered with lids and placed in an incubator at 25° C. 6 Days after, dead insects were counted, and the mortality was calculated by using the same equation as in Test Example 1. The test was carried out in duplicate.

Data set [4] relates to Myzus persicae. Put plainly: Insecticidal Test on Myzus persicae. The data set is classed as in vivo. As to conditions: foliar, 144 h, 500 ppm solution sprayed, apterous adults on leaf discs, 25° C., 6 days after, read-out: mortality. As to the method: as §1, with “Canarium album” for “cucumber”, “Myzus persicae” for “Aphis gossypii”
Data set [5] relates to Myzus persicae. Put plainly: Soil Irrigation Test on Myzus persicae. The data set is classed as in vivo. The following applies: 144 h, 100 ppm solution, 10 ml soil irrigation of cabbage seedlings, greenhouse, 6 days after release of insects. As for the experimental part:
10% emulsifiable concentrates of compounds of the present invention were diluted with tap water to obtain 100 ppm solutions. The soil around the bases of cabbage seedlings (at the 2.5 true leaf stage) planted in plastic cups was irrigated with 10 ml of the solutions, and the cups were placed in a greenhouse. One day after the irrigation, adults of Myzus persicae were released at a ratio of 20 insects per seedling, and the seedlings were incubated in the greenhouse. 6 Days after the release of the insects, living insects were counted, and the control value was calculated from the following equation.
Control value (%)={1−(Cb×Tai)/(Cai×Tb)}×100
Cb: the number of insects in a non-treated area before treatment
Cai: the final number of living insects in a non-treated area
Tb: the number of insects in a treated area before treatment
Tai: the final number of living insects in a treated area

Each structure is given as a SMILES string. Where a name gives a salt, the structure may show the parent alone.

Usually melting point stands for the temperature of the solid-liquid transition. Usually mortality stands for the share of the test organisms that died. By pest or weed control is commonly meant the degree to which the test organism was suppressed or injured, in per cent. Higher therefore signals a strong effect.

In turn, `CCNc1cn(-c2cccnc2)nc1C` (as salt: hydrochloride) [B-002, N-ethyl-3-methyl-1-(pyridin-3-yl)-1H-pyrazole-4-amine] gave a melting point of 113 to 116 °C.
As to `Cc1nn(-c2cccnc2)cc1NC(=O)OC(C)(C)C` [1-011, tert-butyl 3-methyl-1-(pyridin-3-yl)-1H-pyrazol-4-ylcarbamate], the mortality at 500 ppm in data set [1], in data set [2], in data set [3] and in data set [4] was at least 90% in each case. The compound also had a pest or weed control at 100 ppm in data set [5] of at least 90%.
With `O=C(Nc1cnn(-c2cccnc2)c1)C(Br)CCCBr` (stereo not drawn) [1-025, 2,5-dibromo-N-{1-(pyridin-3-yl)-1H-pyrazol-4-yl}pentanamide], the melting point fell in the range of 114 to 115 °C.
Consider `O=C1CCCCN1c1cnn(-c2cccnc2)c1` [1-034, 1-{1-(pyridin-3-yl)-1H-pyrazol-4-yl}piperidin-2-one], for which the melting point is 123 to 124 °C.
`CSCCC(=O)N(C)c1cn(-c2cccnc2)nc1Cl` [1-038, N-{3-chloro-1-(pyridin-3-yl)-1H-pyrazol-4-yl}-N-methyl-3-(methylthio)propanamide] came in with a pest or weed control at 100 ppm in data set [5] of at least 90%.
Consider `CCN(C(=O)[C@H](C)CSC)c1cn(-c2cccnc2)nc1Cl` [1-048(S)-(−), (S)-(−)-N-{3-chloro-1-(pyridin-3-yl)-1H-pyrazol-4-yl}-N-ethyl-2-methyl-3-(methylthio)propanamide], for which the mortality at 500 ppm in data set [1], in data set [2], in data set [3] and in data set [4] was at least 90% each time. In data set [5], this compound gave a pest or weed control at 100 ppm of at least 90%.
Turning to `CN(C(=O)CCS(C)(=O)=O)c1cn(-c2cccnc2)nc1Cl` [1-052, N-{3-chloro-1-(pyridin-3-yl)-1H-pyrazol-4-yl}-N-methyl-3-(methylsulfonyl)propanamide], the melting point was in the range of 90 to 91 °C. The same compound had a pest or weed control at 100 ppm in data set [5] of at least 90%.
As to `CCSC(C)C(=O)N(CC)c1cn(-c2cccnc2)nc1Cl` (stereo not drawn) [1-118, N-{3-chloro-1-(pyridin-3-yl)-1H-pyrazol-4-yl}-N-ethyl-2-(ethylthio)propanamide], the melting point fell in the range of 65 to 66 °C. In data set [5], this compound came in with a pest or weed control at 100 ppm of at least 90%.
Turning to `CSCC(C)(C)C(=O)N(C)c1cn(-c2cccnc2)nc1Cl` [1-134, N-{3-chloro-1-(pyridin-3-yl)-1H-pyrazol-4-yl}-N,2,2-trimethyl-3-(methylthio)propanamide], the mortality at 500 ppm in data set [1], in data set [2], in data set [3] and in data set [4] was at least 90% throughout. The compound further returned a pest or weed control at 100 ppm in data set [5] of at least 90%.
The compound `CSCC1CCN(c2cn(-c3cccnc3)nc2Cl)C1=O` (stereo not drawn) [1-141, 1-{3-chloro-1-(pyridin-3-yl)-1H-pyrazol-4-yl}-3-(methylthiomethyl)pyrrolidin-2-one] gave a melting point of 83 to 84 °C.
For the compound `CCN(C(=O)C(CSC)=NOC)c1cn(-c2cccnc2)nc1Cl` [1-143, N-{3-chloro-1-(pyridin-3-yl)-1H-pyrazol-4-yl}-N-ethyl-2-(methoxyimino)-3-(methylthio)propanamide], the pest or weed control at 100 ppm in data set [5] was at least 90%.
In data set [5], `CCN(C(=O)C(CSC)OC)c1cn(-c2cccnc2)nc1Cl` (stereo not drawn) [1-160, N-{3-chloro-1-(pyridin-3-yl)-1H-pyrazol-4-yl}-N-ethyl-2-methoxy-3-(methylthio)propanamide] came in with a pest or weed control at 100 ppm of at least 90%.
As for `CCSC(C)C(=S)Nc1cn(-c2cccnc2)nc1Cl` (stereo not drawn) [1-353, N-{3-chloro-1-(pyridin-3-yl)-1H-pyrazol-4-yl}-2-(ethylthio)propanethioamide], the mortality at 500 ppm in data set [2] was at least 90%. In data set [5], the pest or weed control at 100 ppm was at least 90%.
As for `CS(=O)(=O)Nc1cnn(-c2cccnc2)c1` [2-001], the melting point was in the range of 140 to 150 °C.
For the compound `CSCC(=O)N(C)C(C)=Nc1cn(-c2cccnc2)nc1C` [3-004, N-methyl-N-[1-{3-methyl-1-(pyridin-3-yl)-1H-pyrazol-4-ylimino}ethyl]-2-(methylthio)acetamide], the mortality at 500 ppm in data set [1] and in data set [2] was at least 90% throughout. The compound also came in with a pest or weed control at 100 ppm in data set [5] of at least 90%.
Compound `Clc1nn(-c2cccnc2)cc1NCC1CC1` [B-014, 3-chloro-N-(cyclopropylmethyl)-1-(pyridin-3-yl)-1H-pyrazole-4-amine] had a melting point of 72 to 78 °C.

The values are drawn from patent US20130338367A1, “PYRAZOLE DERIVATIVES AND PESTICIDES” (Nissan Chemical Industries, Ltd., priority 2011, published 2013).
